Results reported in patent US20150132404A1, “Equine feed for the reduction of ulcers in performance horses” (priority 2013, published 2015).

System: horses
Experiment: Observation of horses fed the feed supplement mixture (testing of the product)
Type: in vivo, horse
From the text: A dry horse feed supplement for the prevention and treatment of ulcers in horses, especially those involved in performance activities, provides a feed supplement mixture comprising a quantity of forage or filler product; a quantity of grain product, a quantity of protein product, a quantity of roughage product, essential vitamins and trace minerals, a yeast product, fat, molasses, a measured quantity of thiamine (Vitamin B1) and a measured quantity of sodium bicarbonate. The feed supplement mixture is fed to a horse based upon the total weight of the horse, in an amount between 0.50-1.50% of the body weight, depending upon the level of work and activity stress of the horse.
The feed composition ingredients, delivered in the parameters set above with regard to content quantity by percentage includes the ingredients list, in order of most ingredient quantity to least ingredients quantity, provides the feed containing no less than 14% crude protein, 6.5% crude fat, a no more than 22% crude fiber, no less than 0.6% and no more than 1% calcium, no less than 0.3% phosphorus, as well as quantities of zinc, copper, selenium, Vitamin A and Vitamin E. There are special blends suited for older performance horses and other blends for various younger performance horses. […]

Row | Compound | effect on demeanor / stress level of the horse (fed in the feed supplement mixture at 0.5-1.5% of body weight) | pH level in the digestive tract (sodium bicarbonate at the recommended levels in the feed)
1 | Cc1ncc(C[n+]2csc(CCO)c2C)c(N)n1 [thiamine] | calming effect on horses | –
2 | O=C([O-])O.[Na+] [sodium bicarbonate] | – | acts as a buffer and maintains an optimal ph level in the digestive tract
